# System: HT-1080 cells
# Test: Metabolite profiling (LC-MS/MS) upon erastin treatment
# Type: cell-based, human
# Details: 5 μg/mL erastin 5 h
# Experimental: 2 million HT-1080 cells were seeded in 10 cm culture dishes. […] 4 mL of cold 80% methanol was added to the cell monolayer to extract polar metabolites using a cell scraper. The cell lysate/methanol mixture was transferred to a 15 mL tube and centrifuged at 2,000×g at 4° C. for 10 minutes to pellet debris and proteins. The supernatant was transferred to a new tube and stored at −80° C. for liquid chromatography-mass spectrometry/mass spectrometry (LC-MS/MS) analysis. For lipid extract preparation, 3 mL of cold 100% isopropanol was added to the cell monolayer to scrape out cells. The resulting cell lysate/isopropanol mixture was transferred to a new 15 mL tube and centrifuged at 2,000×g at 4° C. for 10 minutes. The cleared supernatant was transferred to a new tube and stored at −20° C. for LC-MS/MS analysis.
# The metabolite extract was subjected to LC-MS/MS analysis to determine the quantity of each metabolite in each sample.
structure (smiles),measurement,value
CCOc1ccccc1-n1c(C(C)N2CCN(C(=O)COc3ccc(Cl)cc3)CC2)nc2ccccc2c1=O (stereo not drawn) [erastin],2-aminodipate Erastin/DMSO,0.6644
same,2-aminodipate log2 (Erastin/DMSO),−0.59
same,2′-deoxyadenosine Erastin/DMSO,0.6549
same,2′-deoxyadenosine log2 (Erastin/DMSO),−0.6107
same,2′-deoxycytidine Erastin/DMSO,1.737
same,2′-deoxycytidine log2 (Erastin/DMSO),0.7968
same,4-hydroxybenzoate Erastin/DMSO,0.9815
same,4-hydroxybenzoate log2 (Erastin/DMSO),−0.02693
same,4-pyridoxate Erastin/DMSO,1
same,4-pyridoxate log2 (Erastin/DMSO),0.0001853
same,5-HIAA (first entry) Erastin/DMSO,0.7283
same,5-HIAA (first entry) log2 (Erastin/DMSO),−0.4574
same,5-HIAA (second entry) Erastin/DMSO,1.231
same,5-HIAA (second entry) log2 (Erastin/DMSO),0.2997
same,5-hydroxytryptophan Erastin/DMSO,0.8725
same,5-hydroxytryptophan log2 (Erastin/DMSO),−0.1967
same,ADMA Erastin/DMSO,0.8585
same,ADMA log2 (Erastin/DMSO),−0.2201
same,ADMA/SDMA Erastin/DMSO,0.8985
same,ADMA/SDMA log2 (Erastin/DMSO),−0.1543
same,ADP Erastin/DMSO,0.9616
same,ADP log2 (Erastin/DMSO),−0.05643
same,AMP Erastin/DMSO,1.071
same,AMP log2 (Erastin/DMSO),0.09933
same,Anthranilic acid Erastin/DMSO,1.242
same,Anthranilic acid log2 (Erastin/DMSO),0.3128
same,C14:0 CE Erastin/DMSO,0.7897
same,C14:0 CE log2 (Erastin/DMSO),−0.3407
same,C14:0 LPC Erastin/DMSO,3.625
same,C14:0 LPC log2 (Erastin/DMSO),1.858
same,C14:0 SM Erastin/DMSO,1.062
same,C14:0 SM log2 (Erastin/DMSO),0.08617
same,C16:0 CE Erastin/DMSO,0.9643
same,C16:0 CE log2 (Erastin/DMSO),−0.05248
same,C16:0 LPC Erastin/DMSO,3.818
same,C16:0 LPC log2 (Erastin/DMSO),1.933
same,C16:0 SM Erastin/DMSO,1.03
same,C16:0 SM log2 (Erastin/DMSO),0.04281
same,C16:1 CE Erastin/DMSO,0.9321
same,C16:1 CE log2 (Erastin/DMSO),−0.1015
same,C16:1 LPC Erastin/DMSO,5.386
same,C16:1 LPC log2 (Erastin/DMSO),2.429
same,C16:1 SM Erastin/DMSO,0.9808
same,C16:1 SM log2 (Erastin/DMSO),−0.02798
same,C18:0 CE Erastin/DMSO,1.01
same,C18:0 CE log2 (Erastin/DMSO),0.01367
same,C18:0 LPC Erastin/DMSO,3.335
same,C18:0 LPC log2 (Erastin/DMSO),1.738
same,C18:0 SM Erastin/DMSO,1.018
same,C18:0 SM log2 (Erastin/DMSO),0.02559
same,C18:1 CE Erastin/DMSO,0.9198
same,C18:1 CE log2 (Erastin/DMSO),−0.1206
same,C18:1 LPC Erastin/DMSO,3.744
same,C18:1 LPC log2 (Erastin/DMSO),1.904
same,C18:1 SM Erastin/DMSO,0.925
same,C18:1 SM log2 (Erastin/DMSO),−0.1125
same,C18:2 CE Erastin/DMSO,0.9483
same,C18:2 CE log2 (Erastin/DMSO),−0.07651
same,C18:3 CE Erastin/DMSO,0.9277
same,C18:3 CE log2 (Erastin/DMSO),−0.1083
same,C20:3 CE Erastin/DMSO,0.7864
same,C20:3 CE log2 (Erastin/DMSO),−0.3467
same,C20:4 CE Erastin/DMSO,0.9141
same,C20:4 CE log2 (Erastin/DMSO),−0.1297
same,C20:4 LPC Erastin/DMSO,8.518
same,C20:4 LPC log2 (Erastin/DMSO),3.091
same,C20:5 CE Erastin/DMSO,0.8407
same,C20:5 CE log2 (Erastin/DMSO),−0.2504
same,C22:0 SM Erastin/DMSO,0.96
same,C22:0 SM log2 (Erastin/DMSO),−0.0589
same,C22:1 SM Erastin/DMSO,0.8374
same,C22:1 SM log2 (Erastin/DMSO),−0.256
same,C22:6 CE Erastin/DMSO,0.7847
same,C22:6 CE log2 (Erastin/DMSO),−0.3498
same,C22:6 LPC Erastin/DMSO,8.456
same,C22:6 LPC log2 (Erastin/DMSO),3.08
same,C24:0 SM Erastin/DMSO,0.9621
same,C24:0 SM log2 (Erastin/DMSO),−0.05567
same,C24:1 SM Erastin/DMSO,0.8933
same,C24:1 SM log2 (Erastin/DMSO),−0.1627
same,C30:0 PC Erastin/DMSO,0.8954
same,C30:0 PC log2 (Erastin/DMSO),−0.1594
same,C30:1 PC Erastin/DMSO,1.014
same,C30:1 PC log2 (Erastin/DMSO),0.01988
same,C30:2 PC Erastin/DMSO,0.9467
same,C30:2 PC log2 (Erastin/DMSO),−0.07901
same,C32:0 PC Erastin/DMSO,0.7948
same,C32:0 PC log2 (Erastin/DMSO),−0.3314
same,C32:0 PE Erastin/DMSO,0.9821
same,C32:0 PE log2 (Erastin/DMSO),−0.0261
same,C32:1 DAG Erastin/DMSO,1.055
same,C32:1 DAG log2 (Erastin/DMSO),0.07658
same,C32:1 PC Erastin/DMSO,0.9998
same,C32:1 PC log2 (Erastin/DMSO),−0.0003379
same,C32:1 PE Erastin/DMSO,1.024
same,C32:1 PE log2 (Erastin/DMSO),0.03411
same,C32:1 PI Erastin/DMSO,1.261
same,C32:1 PI log2 (Erastin/DMSO),0.3346
same,C32:2 PC Erastin/DMSO,1.218
same,C32:2 PC log2 (Erastin/DMSO),0.2847
same,C32:2 PE Erastin/DMSO,1.018
same,C32:2 PE log2 (Erastin/DMSO),0.02554
same,C34:0 PC Erastin/DMSO,0.7975
same,C34:0 PC log2 (Erastin/DMSO),−0.3264
same,C34:0 PE Erastin/DMSO,0.9533
same,C34:0 PE log2 (Erastin/DMSO),−0.06907
same,C34:1 DAG Erastin/DMSO,0.8823
same,C34:1 DAG log2 (Erastin/DMSO),−0.1807
same,C34:1 PC Erastin/DMSO,0.8993
same,C34:1 PC log2 (Erastin/DMSO),−0.1531
same,C34:1 PE Erastin/DMSO,1.04
same,C34:1 PE log2 (Erastin/DMSO),0.05679
same,C34:1 PI Erastin/DMSO,1.173
same,C34:1 PI log2 (Erastin/DMSO),0.2306
same,C34:2 DAG Erastin/DMSO,1.089
same,C34:2 DAG log2 (Erastin/DMSO),0.1227
same,C34:2 PC Erastin/DMSO,1.049
same,C34:2 PC log2 (Erastin/DMSO),0.06833
same,C34:2 PE Erastin/DMSO,0.982
same,C34:2 PE log2 (Erastin/DMSO),−0.02619
same,C34:2 PI Erastin/DMSO,1.286
same,C34:2 PI log2 (Erastin/DMSO),0.3633
same,C34:3 PC Erastin/DMSO,1.134
same,C34:3 PC log2 (Erastin/DMSO),0.1814
same,C34:4 PC Erastin/DMSO,1.086
same,C34:4 PC log2 (Erastin/DMSO),0.119
same,C36:0 PC Erastin/DMSO,0.6501
same,C36:0 PC log2 (Erastin/DMSO),−0.6212
same,C36:0 PE Erastin/DMSO,0.9538
same,C36:0 PE log2 (Erastin/DMSO),−0.06821
same,C36:0 PI Erastin/DMSO,1.006
same,C36:0 PI log2 (Erastin/DMSO),0.009131
